Assay results taken from EP4696693A1, “HEXAHYDRO[1,4]OXAZINO[3,4-C]PYRIDO[2,1-F][1,2,4]TRIAZINE DEUTERATED DERIVATIVE, PHARMACEUTICAL COMPOSITION THEREOF, PREPARATION METHOD THEREFOR, AND ANTI-INFLUENZA USE THEREOF” (Changsha Jingyi Pharmaceutical Technology Co., Ltd, priority 2023, dated 2024).

What was measured:
[1] = tested on: influenza A virus subtype H3N2 strain (A/California/2/2014); experiment: Cytopathic effect (CPE) assay in MDCK cells, influenza A; assay type: cell-based; conditions: for EC50: Influenza A virus, H3N2, MDCK cells, 100 TCID50, CPE assay, CCK-8, read-out: EC50 against the influenza A virus subtype H3N2 strain (A/California/2/2014)
[2] = Pharmacokinetics after oral gavage of MC suspension, plasma LC-MS/MS; set-up: species or system SD rats; conditions: SD, rat, in vivo, 0.9 mg/kg
Experimental: This example investigated the pharmacokinetics profile of the compound of Formula I administered as a methylcellulose (MC) suspension by oral gavage in rats.
The drug concentration of baloxavir was determined using a validated LC-MS/MS analytical method. Plasma samples were precipitated with acetonitrile, and the supernatant was injected for analysis. A chromatographic column, Waters XBridge C8 2.5 µm 2.1×50 mm Column, was used, and a gradient elution was carried out using a mobile phase of 0.1% formic acid in water and acetonitrile (containing 0.1% formic acid), with a flow rate of 0.60 mL/min. Monitoring was carried out using an electrospray ionization (ESI) source in a positive ion mode with a multiple reaction monitoring (MRM) method. The linear range for baloxavir was 0.1000 to 100.0 ng/mL, with a lower limit of quantification of 0.1000 ng/mL; the linear range for baloxavir marboxil was 0.1000 to 5.000 ng/mL, with a lower limit of quantification of 0.1000 ng/mL; the linear range for the compound of Formula I was 0.1000 to 5.000 ng/mL, with a lower limit of quantification of 0.1000 ng/mL; the linear range for the T-3 compound was 0.1000 to 5.000 ng/mL, with a lower limit of quantification of 0.1000 ng/mL; and the linear range for the T-4 compound was 0.1000 to 5.000 ng/mL, with a lower limit of quantification of 0.1000 ng/mL.
This experiment used the marketed drug baloxavir marboxil and the analogous compounds T-3 and T-4 as references to investigate the differences in single-dose pharmacokinetics characteristics between the compound of Formula I and the above compounds. The dose groups were designed as follows: baloxavir marboxil group, with a medium dose (0.9 mg/kg, calculated as baloxavir), T-3 and T-4 compound groups, with a medium dose (0.9 mg/kg), and Compound of Formula I group, with a medium dose (0.9 mg/kg). Blood samples (approximately 0.2 mL) were collected via the orbital plexus before administration (0 h) and at 5 min, 15 min, 30 min, 1 h, 2 h, 4 h, 6 h, 8 h, 12 h, and 24 h after administration. Plasma was separated by centrifugation at 1700 g for 10 min, and plasma drug concentrations were determined by the LC-MS/MS method. Measured concentration values below 80% of the lower limit of quantification of the analyzed subject were considered not detected (counted as zero) or below the limit of quantification (counted as ND); values before the peak concentration Cmax were counted as zero, and values after the peak concentration were counted as ND. Pharmacokinetics parameters were calculated using Phoenix WinNonlin 8.0 software.
The main pharmacokinetics parameter experiment results are as follows: The primary pharmacokinetics parameters after the administration of different doses of a suspension of the compound of Formula I to SD rats by oral gavage are shown in Table 5 below.

[3] = tested on: H3N2 influenza A virus; experiment: In vivo pharmacodynamics, influenza A virus infection model (lung index, lung viral load); conditions: H3N2-infected BALB/c mice, x ± s, n = 10; for Lung index: 6 mg/kg oral gavage once daily; for PCR viral load: lung tissue, 6 mg/kg
Experimental: (§1) In this example, the H3N2 influenza A virus and the IBV influenza B virus were used to intranasally infect BALB/c mice to establish an influenza A virus infection model and an influenza B virus infection model. After infection, the compound of Formula I was administered to the mice by oral gavage. Changes in lung index and lung viral load of the mice were observed. Oseltamivir phosphate granules, baloxavir marboxil, T-3 compound and T-4 compound were set as positive controls to evaluate the in vivo efficacy of the compound of Formula I against influenza viruses.
A total of 250 qualified SPF-grade BALB/c mice, weighing 11.9-15.1 g, half male and half female, were randomly divided into 7 groups based on genders and body weights: normal control group, model control group, oseltamivir phosphate granules group (6 mg/kg), baloxavir marboxil group (6 mg/kg), T-3 compound group (6 mg/kg), T-4 compound group (6 mg/kg) and Compound of Formula I group (6 mg/kg). The normal control group, oseltamivir phosphate granules group, baloxavir marboxil group, T-3 compound group (6 mg/kg) and T-4 compound group each included 30 mice, and the model control group and the Compound of Formula I group each included 50 mice. Two hours before the first administration, all mice were lightly anesthetized with ether. Except for the normal control group, all mice were intranasally inoculated with the stock solution of H3N2 influenza A virus (viral titer: 6 log2) at 100 µL per mouse. The normal control group was administrated with an equal volume of phosphate-buffered solution intranasally. Each group of mice was administered the corresponding concentration of the drug solution at 20 mL/kg, once daily for 5 consecutive days. The normal control group and the model control group were administered an equal volume of 0.5% methylcellulose (0.5% MC) by oral gavage. The body weights of the mice in each group were recorded daily. At 24 h and 48 h after administration, 10 mice (half male and half female) were randomly selected from each group and euthanized by cervical dislocation, and their lungs were dissected and weighed to calculate the lung index. The influenza A viral load in the lung tissue of the mice was detected using a real-time quantitative polymerase chain reaction (PCR) method. In the model control group and the Compound of Formula I group, 10 mice were euthanized at 12 h, 24 h, 48 h, 72 h, and 5 days after administration. The left lung was collected to assess the H3N2 influenza A viral load. […]

[4] = tested on: IBV influenza B virus; experiment: In vivo pharmacodynamics, influenza B virus infection model (lung index, lung viral load); set-up: PCR relative quantification: unit not given here; conditions: IBV-infected BALB/c mice, x ± s, n = 10; for Lung index: 6 mg/kg oral gavage once daily; for PCR relative quantification: lung tissue, dose printed 18 mg/kg
Experimental: as §1
A total of 210 qualified SPF-grade BALB/c mice, weighing 13.0-15.4 g, half male and half female, were randomly divided into 7 groups based on genders and body weights: normal control group, model control group, oseltamivir phosphate granules group (6 mg/kg), baloxavir marboxil group (6 mg/kg), T-3 compound group (6 mg/kg), T-4 compound group (6 mg/kg) and Compound of Formula I group (6 mg/kg), 30 mice per group. Two hours before the first administration, all mice were lightly anesthetized with ether. Except for the normal control group, all mice were intranasally inoculated with the stock solution of IBV influenza B virus (viral titer: 8 log2) at 100 µL per mouse. The normal control group was administrated with an equal volume of phosphate-buffered solution intranasally. Each group of mice was administered the corresponding concentration of the drug solution at 20 mL/kg by oral gavage, once daily for 5 consecutive days. The normal control group and the model control group were administered an equal volume of 0.5% MC. The body weights of the mice in each group were recorded daily. At 24 h and 48 h after administration, 10 mice (half male and half female) were randomly selected from each group and euthanized by cervical dislocation, and their lungs were dissected and weighed to calculate the lung index. The influenza B viral load in the lung tissue of the mice was detected using a relative fluorescence quantitative PCR method. […]

[5] = In vitro cytotoxicity, Cell Counting Kit (CCK-8); assay type: cell-based, canine; conditions: dog; MDCK cells, 48 h incubation, CCK-8, OD450nm; read-out: IC50 (cytotoxic effects on MDCK cells)
Experimental: The in vitro cytotoxic effects of the test compound (the compound of Formula I) and the positive control drugs (baloxavir marboxil, baloxavir, T-3 compound and T-4 compound) on Madin-Darby canine kidney (MDCK) cells were determined using a Cell Counting Kit (CCK-8). MDCK cells were seeded in 96-well plates and cultured overnight. After different concentrations of the drugs were added, the cells were incubated for 48 h. CCK-8 was then added, and the cells were incubated in the dark for […]. The optical density (OD) at 450 nm (OD450nm) values were measured using a microplate reader, and the half-maximal inhibitory concentration (IC50) of the drugs on the cells was calculated.

[6] = tested on: influenza B virus strain (B/Florida/78/2015); experiment: Cytopathic effect (CPE) assay in MDCK cells, influenza B; assay type: cell-based; conditions: 100 TCID50, CPE assay, CCK-8, read-out: EC50 against the influenza B virus strain (B/Florida/78/2015)

For [2H]C([2H])([2H])C([2H])([2H])OC(=O)OCOc1c2n(ccc1=O)N([C@@H]1c3ccccc3SCc3c1ccc(F)c3F)[C@@H]1COCCN1C2=O [Compound of Formula I, [[(12aR)-12-[(11S)-7,8-difluoro-6,11-dihydrodibenzo[b,e]thiepin-11-yl]-6,8-dioxo-3,4,6,8,12,12 a-hexahydro-1H-[1,4]oxazino[3,4-c]pyrido[2,1-f][1,2,4]triazin-7-yl]oxy]methyl (ethyl-d5) carbonate], which EC50 [1] is on record?
The EC50 was 5.02 nM.

What about the “protection against influenza virus-induced cell damage” value ([1]; concentration of 250 nM, influenza virus, strain not specified) of the same molecule?
The value was “significant protection”.

And the “AUC 0-t” value [2]?
Its value is 203.1047 ± 21.4237 (10.55%) ng·h/mL.

And the “AUC 0-∞” value [2]?
The value was 207.7670 ± 25.0910 (12.08%) ng·h/mL.

And the Cmax [2]?
The Cmax was 31.7780 ± 2.4334 (7.66%) ng/mL.

What about the Tmax [2] of the same molecule?
The Tmax was 1.0000 (0.500, 2.000) h.

What about the Lung index ([3]; 24 h after administration) of the same molecule?
The Lung index was 8.67 ± 0.51^×× mg/g.

And the Lung index ([3]; 48 h after administration)?
The Lung index was 9.00 ± 0.57^× mg/g.

And the PCR viral load ([3]; 24 h after administration)?
Its PCR viral load is 1308927 ± 1042821^×× copies.

What about the PCR viral load ([3]; 48 h after administration) of the same molecule?
Its PCR viral load is 193017 ± 192655^×× copies.

What about the Lung index ([4]; 24 h after administration) of the same molecule?
The Lung index was 12.01 ± 1.09 mg/g.

What about the Lung index ([4]; 48 h after administration) of the same molecule?
Its Lung index is 9.79 ± 0.90^×× mg/g.

And the PCR relative quantification ([4]; 24 h after administration)?
The PCR relative quantification was 1416.57 ± 1122.12.

And the PCR relative quantification ([4]; 48 h after administration)?
Its PCR relative quantification is 1206.66 ± 1034.87.

What about the IC50 at 48 h [5] of the same molecule?
The IC50 at 48 h was 17400 nM.

What about the EC50 [6] of the same molecule?
Its EC50 is 8.15 nM.

Which EC50 [1] does the source give for COC(=O)OCOc1c2n(ccc1=O)N([C@@H]1c3ccccc3SCc3c1ccc(F)c3F)[C@@H]1COCCN1C2=O [baloxavir marboxil] here?
Its EC50 is 13.4 nM.

And the “AUC 0-t” value [2]?
The value was 157.8227 ± 56.5111 (35.81%) ng·h/mL.

And the “AUC 0-∞” value [2]?
Its value is 160.9111 ± 57.8613 (35.96%) ng·h/mL.

What about the Cmax [2] of the same molecule?
Its Cmax is 23.1900 ± 7.9729 (34.38%) ng/mL.

What about the Tmax [2] of the same molecule?
The Tmax was 1.0000 (0.250, 2.000) h.

What about the Lung index ([3]; 24 h after administration) of the same molecule?
Its Lung index is 9.53 ± 0.80 mg/g.

What about the Lung index ([3]; 48 h after administration) of the same molecule?
The Lung index was 9.11 ± 0.96 mg/g.

What about the PCR viral load ([3]; 24 h after administration) of the same molecule?
The PCR viral load was 1919953 ± 784647^×× copies.

What about the PCR viral load ([3]; 48 h after administration) of the same molecule?
Its PCR viral load is 320599 ± 202529 copies.

And the Lung index ([4]; 24 h after administration)?
Its Lung index is 11.64 ± 1.06 mg/g.

And the Lung index ([4]; 48 h after administration)?
The Lung index was 11.45 ± 0.66^× mg/g.

And the IC50 at 48 h [5]?
Its IC50 at 48 h is 11600 nM.

And the EC50 [6]?
The EC50 was 15.4 nM.

What does the source list for O=C1c2c(O)c(=O)ccn2N([C@@H]2c3ccccc3SCc3c2ccc(F)c3F)[C@@H]2COCCN12 [baloxavir]?
EC50 [1]: 1.31 nM; IC50 at 48 h [5]: 10400 nM; EC50 [6]: 2.06 nM
